Reference: US9497960B2, “Biocide compositions comprising alkoxylation products of isoamyl alcohol derivatives” (COGNIS IP MANAGEMENT GMBH, priority 2010, dated 2016)

What was measured:
[1] = tested on: barley powdery mildew (BPM); assay: Protective trial with Amistar (Azoxystrobin SC 250) against barley powdery mildew; assay type: in vivo, Blumeria graminis f. sp. hordei on barley; details: 5 g/ha azoxystrobin, adjuvant 50 ml/ha, leaves cut 5 h after application, incubation 10 d
Experimental: Opus SC125 (BASF) was tested to control barley powdery mildew (BPM) in a curative greenhouse trial, Azoxystrobin SC 250 in a protective trial. In each case, barley was cultivated in a substrate “Frustorder Erde” for three weeks. Each treatment was replicated 14 times. The adjuvant dose rate in each treatment was 50 ml/ha. 5 h after application with the equivalent of 5 g/ha azoxystrobin, leaf segments were cut off at a length of 7 cm from the stem. The leaves of the F and F-1 leaf were placed on agar. After the inoculation, the incubation time was 10 d. The assessment of the infection rate was conducted by a trained biologist.

[2] = Dynamic and quasistatic surface tension, Krüss Bubble Pressure Tensiometer BP2; assay type: physicochemical; details: 0.1% in demineralised water, Kruess BP 2, 20° C.; for Surface tension at 10 Hz: dynamic; for Surface tension at 0.1 Hz: quasistatic
Experimental: (§1) Definition of “quasistatic”: Static or equilibrium surface tension at an air-liquid interface can be determined by the Du Noüy ring method, the Wilhelmy plate etc. […] To avoid such problems, a dynamic method is used but the frequency is reduced to 0.1 Hz or less, thus close enough to equilibrium conditions. Dynamic surface tension is determined at a frequency of 10 Hz. It was determined at 20° C. with the Krüss Bubble Pressure Tensiometer BP2, available from Krüss GmbH, Borsteler Chaussee 85-99, 22453 Hamburg, Germany. Foam potential was tested with SITA foam tester R-2000, available from SITA Messtechnik GmbH, Gostritzer Str. 61-63, 01217 Dresden, Germany. The results are compiled in Tables 1 and 2

[3] = tested on: barley powdery mildew (Blumeria graminis f. sp. hordei); assay: Curative greenhouse trial with Opus against barley powdery mildew; assay type: in vivo, Blumeria graminis f. sp. hordei on barley; details: for Infection rate of barley powdery mildew after treatment with fungicides, Opus: curative, Opus 10 g/ha, adjuvant 50 ml/ha, inoculation 2 days prior to application, assessment 14 DAT, barley leaf segments; for Sum of infection rates: sum of Opus (curative) and Amistar (protective) trials
Experimental: Opus SC125 (BASF) was tested to control barley powdery mildew (BPM) in a curative greenhouse trial, Azoxystrobin SC 250 in a protective trial. In each case, barley was cultivated in a substrate “Frustorder Erde” for three weeks. Each treatment was replicated 14 times. The adjuvant dose rate in each treatment was 50 ml/ha. Inoculation of the leaves with powdery mildew (Blumeria graminis f. sp. hordei) was done 2 days prior to application to test Opus' curative action. From the stem, leaf segments were cut off with a length of 10 cm using the flag leaf (F) and 2nd leaf (F-1). Altogether, the leaves of each were placed on benzimidazol agar i.e. 0.5% Agar with 40 ppm benzimidazol. The concentration of Opus for the leaf application was 10 g/ha. Assessment 14 days after treatment (14 DAT) of the efficacy against powdery mildew was done by counting the mildew pustules per leaf on a length of 7 cm. The assessment of the infection rate was conducted by a trained biologist.

[4] = Foam potential / foam height of aqueous adjuvant solutions; assay type: physicochemical; details: 0.1% aqueous solution/dispersion; Cipac MT 47, Cipac water D
Experimental: as §1

Molecule	Infection rate of barley powdery mildew after treatment with fungicides, Amistar [1]	Surface tension at 10 Hz [2]	Surface tension at 0.1 Hz [2]	Infection rate of barley powdery mildew after treatment with fungicides, Opus [3]	Sum of infection rates [3]	Foam hight after 1 m [4]	Foam hight after 5 m [4]
CC(C)CCC(COCCOCCOCCOCCOCCOCCOCCOCCOCCOCCO)C(C)C (centres unmarked) [Example 3, Isoamylguerbet + 10EO]	5%	46 mN/m	36 mN/m	7%	12%	3 mL	2 mL
CC(C)CCC(COCCOCCOCCOCCOCCO)C(C)C (centres unmarked) [Example 4, Isoamylguerbet + 5EO]	3%	39 mN/m	30 mN/m	12%	15%	0 mL	0 mL
CC(C)CCC(COCCOCCOCCO)C(C)C (centres unmarked) [Example 5, Isoamylguerbet + 3EO]	4%	42 mN/m	30 mN/m	20%	24%	0 mL	0 mL
Isoamylguerbet + 3EO + 3PO [Example 2]	0%	45 mN/m	32 mN/m	8%	8%	0 mL	0 mL
Isoamylguerbet + 3PO + 3EO [Example 1]	0%	45 mN/m	28 mN/m	3%	3%	1 mL	0 mL
